This assay relates to P388 leukemia ip, CD2F1 mice, survival T/C. Briefly: NCI In Vivo Anticancer Drug Screen. Data for tumor model P388 Leukemia (intraperitoneal) in CD2F1 (CDF1) mice. To be noted: endpoint: median survival time, higher = longer survival. In outline:
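Mice carrying the transplanted tumor received test compound or vehicle. Survival was recorded in each group, and the value is the treated-group measurement divided by that of the vehicle-treated control group.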

The mark [1] stands for this setting: dose: 50.0 mg/kg/injection, schedule: Q01DX009 (ip), vehicle: saline.
The mark [2] stands for this setting: dose: 100.0 mg/kg/injection, schedule: Q01DX009 (ip), vehicle: saline.
Where [3] appears, read: dose: 200.0 mg/kg/injection, schedule: Q01DX009 (ip), vehicle: saline.
Setting [4] is: dose: 25.0 mg/kg/injection, schedule: Q01DX009 (ip), vehicle: saline with Tween-80.
[5] abbreviates: dose: 50.0 mg/kg/injection, schedule: Q01DX009 (ip), vehicle: saline with Tween-80.
Where [6] appears, read: dose: 100.0 mg/kg/injection, schedule: Q01DX009 (ip), vehicle: saline with Tween-80.
Setting [7] is: dose: 100.0 mg/kg/injection, schedule: Q04DX003 (ip), vehicle: saline with Tween-80.
[8] abbreviates: dose: 200.0 mg/kg/injection, schedule: Q01DX009 (ip), vehicle: saline with Tween-80.
[9] abbreviates: dose: 200.0 mg/kg/injection, schedule: Q04DX003 (ip), vehicle: saline with Tween-80.
[10] abbreviates: dose: 50.0 mg/kg/injection, schedule: Q01DX005 (ip), vehicle: saline with Tween-80.
Where [11] appears, read: dose: 100.0 mg/kg/injection, schedule: Q01DX005 (ip), vehicle: saline with Tween-80.
Setting [12] is: dose: 200.0 mg/kg/injection, schedule: Q01DX005 (ip), vehicle: saline with Tween-80.
The mark [13] stands for this setting: dose: 60.0 mg/kg/injection, schedule: Q01DX005 (ip), vehicle: Klucel (hydroxypropylcellulose) (HPC).
[14] abbreviates: dose: 25.0 mg/kg/injection, schedule: Q01DX005 (ip), vehicle: Klucel (hydroxypropylcellulose) (HPC).
Setting [15] is: dose: 50.0 mg/kg/injection, schedule: Q01DX005 (ip), vehicle: Klucel (hydroxypropylcellulose) (HPC).
Where [16] appears, read: dose: 100.0 mg/kg/injection, schedule: Q01DX005 (ip), vehicle: Klucel (hydroxypropylcellulose) (HPC).
[17] abbreviates: dose: 200.0 mg/kg/injection, schedule: Q01DX005 (ip), vehicle: Klucel (hydroxypropylcellulose) (HPC).

Where “and” joins values, the source holds several entries; their conditions need not be identical. Equal values may be shown once. Toxic doses and inconclusive results are not listed.

These results are taken from PubChem BioAssay AID330 (DTP/NCI, 2004).

For `O=C(O)[C@@H]1C[C@@H](O)CN1`, the T/C is 96 % of control under setting [1], 96 % of control under setting [2] and 100 % of control under setting [3].
`C(=C\c1ccncc1)/c1ccncc1`: the T/C is 90 % of control (dose: 12.5 mg/kg/injection, schedule: Q01DX009 (ip), vehicle: saline with Tween-80); 90 % of control under setting [4]; 101 % of control under setting [5]; 89 % of control (dose: 100.0 mg/kg/injection, schedule: Q01DX009 (ip), vehicle: Klucel (hydroxypropylcellulose) (HPC)); 107 % of control under setting [6]; 92 % of control (dose: 200.0 mg/kg/injection, schedule: Q01DX009 (ip), vehicle: Klucel (hydroxypropylcellulose) (HPC)).
On to `CCn1cc(C(=O)O)c(=O)c2ccc(C)[n+](CCSC(=N)N)c21`, for which the T/C is 104 % of control (dose: 100.0 mg/kg/injection, schedule: Q04DX002 (ip), vehicle: saline with Tween-80); 99 % of control (dose: 200.0 mg/kg/injection, schedule: Q04DX002 (ip), vehicle: saline with Tween-80); 100 % of control (dose: 400.0 mg/kg/injection, schedule: Q04DX002 (ip), vehicle: saline with Tween-80).
Take `CCCCCCCCCCCCCCCCCCCCCC(=O)OC`: the T/C is 100 % of control under setting [5]; 100 % of control under setting [6]; 91 % of control under setting [7]; 100 % of control under setting [8]; 87 % of control under setting [9].
For the compound `CC1CCC2N(C1)CC1C3(O)CC4(O)C(CCC5C(=O)C(O)CCC54C)C3(O)CC(O)C1(O)C2(C)O` (centres undefined), the T/C is 96 % of control (dose: 1.87 mg/kg/injection, schedule: Q01DX005 (ip), vehicle: Klucel (hydroxypropylcellulose) (HPC)); 97 % of control (dose: 3.75 mg/kg/injection, schedule: Q01DX005 (ip), vehicle: Klucel (hydroxypropylcellulose) (HPC)); 99 % of control and 97 % of control (dose: 7.5 mg/kg/injection, schedule: Q01DX005 (ip), vehicle: Klucel (hydroxypropylcellulose) (HPC)).
Regarding `CCCCCC(=O)OC(C)Cl` (centres undefined), the T/C under setting [1] is 99 % of control, the T/C under setting [2] was 97 % of control and the T/C under setting [3] was 106 % of control.
As to `CN(O)C(=O)CNC(=O)OC(C)(C)C`, the T/C is 100 % of control under setting [10]; 98 % of control under setting [11]; 100 % of control under setting [12]; 105 % of control (dose: 400.0 mg/kg/injection, schedule: Q01DX005 (ip), vehicle: saline with Tween-80).
Consider `Cc1ccc(NC(=O)N(C)C)c(C)c1`, for which the T/C is, setting by setting: under setting [13], 97 % of control; (dose: 120.0 mg/kg/injection, schedule: Q01DX005 (ip), vehicle: Klucel (hydroxypropylcellulose) (HPC)) 97 % of control; (dose: 240.0 mg/kg/injection, schedule: Q01DX005 (ip), vehicle: Klucel (hydroxypropylcellulose) (HPC)) 94 % of control.
Take `COc1ccc2c(c1)/C(=C/CCN(C)C)c1ccccc1S2`: the T/C (dose: 12.5 mg/kg/injection, schedule: Q04DX003 (ip), vehicle: saline) was 113 % of control and the T/C (dose: 25.0 mg/kg/injection, schedule: Q04DX003 (ip), vehicle: saline) is 109 % of control.
As for `CCOC1=C(C#N)C(SC)=CS(C)(=O)=C1` (centres undefined), the T/C (dose: 50.0 mg/kg/injection, schedule: Q04DX003 (ip), vehicle: Klucel (hydroxypropylcellulose) (HPC)) is 98 % of control; the T/C (dose: 100.0 mg/kg/injection, schedule: Q04DX003 (ip), vehicle: Klucel (hydroxypropylcellulose) (HPC)) is 97 % of control; the T/C (dose: 200.0 mg/kg/injection, schedule: Q04DX003 (ip), vehicle: Klucel (hydroxypropylcellulose) (HPC)) is 101 % of control.
`COc1ccc(OC)c(NC(=O)Oc2cccc(NC(C)=O)c2)c1`: the T/C is 105 % of control under setting [4]; 106 % of control under setting [5]; 104 % of control under setting [6]; 107 % of control under setting [8]; 104 % of control (dose: 400.0 mg/kg/injection, schedule: Q01DX009 (ip), vehicle: saline with Tween-80).
In the case of `CCCCCCCCCCCCSSC(=S)OC(C)C`, the T/C was 100 % of control (dose: 50.0 mg/kg/injection, schedule: Q01DX009 (ip), vehicle: saline + Tween-80 + alcohol); 116 % of control (dose: 100.0 mg/kg/injection, schedule: Q01DX009 (ip), vehicle: saline + Tween-80 + alcohol); 122 % of control (dose: 200.0 mg/kg/injection, schedule: Q01DX009 (ip), vehicle: saline + Tween-80 + alcohol); 119 % of control (dose: 400.0 mg/kg/injection, schedule: Q01DX009 (ip), vehicle: saline + Tween-80 + alcohol).
On to `CC(=NC(C)C)Nc1ccccc1`, for which the T/C was 104 % of control under setting [5] and 105 % of control under setting [6].
Take `Cc1cc(C)c(C#N)c(SC(C(=O)Nc2cc(C(F)(F)F)ccc2Cl)c2ccccc2)n1` (centres undefined): the T/C is, setting by setting: (dose: 12.5 mg/kg/injection, schedule: Q01DX005 (ip), vehicle: Klucel (hydroxypropylcellulose) (HPC)) 90 % of control; under setting [14], 89 % of control; under setting [15], 89 % of control and 90 % of control; under setting [16], 105 % of control; under setting [17], 105 % of control.
In the case of `COc1ccc(NC(=O)/C=C\C(=O)O)cc1OC`, the T/C reads like this: under setting [10], 96 % of control; under setting [11], 96 % of control; under setting [12], 96 % of control.
On to `CCCCCCC[N+]1(CC)CCCCC1`, for which the T/C (dose: 6.25 mg/kg/injection, schedule: Q01DX009 (ip), vehicle: saline) is 104 % of control; the T/C (dose: 12.5 mg/kg/injection, schedule: Q01DX009 (ip), vehicle: saline) is 106 % of control; the T/C (dose: 25.0 mg/kg/injection, schedule: Q01DX009 (ip), vehicle: saline) is 115 % of control.
Take `O=C(O)Cc1c(-c2ccccc2)nc(=S)[nH]c1-c1[nH]c(=S)nc(-c2ccccc2)c1CC(=O)O`: the T/C by setting is: (dose: 60.0 mg/kg/injection, schedule: Q01DX005 (ip), vehicle: saline) 111 % of control; (dose: 120.0 mg/kg/injection, schedule: Q01DX005 (ip), vehicle: saline) 106 % of control; (dose: 240.0 mg/kg/injection, schedule: Q01DX005 (ip), vehicle: saline) 96 % of control.
Turning to `CCc1nc(N)nc(N)c1-c1ccc(Cl)c(N=[N+]=[N-])c1`, the T/C is, setting by setting: (dose: 3.13 mg/kg/injection, schedule: Q01DX009 (ip), vehicle: distilled water + Tween-80) 99 % of control; (dose: 6.25 mg/kg/injection, schedule: Q01DX009 (ip), vehicle: distilled water + Tween-80) 102 % of control; (dose: 12.5 mg/kg/injection, schedule: Q01DX009 (ip), vehicle: distilled water + Tween-80) 107 % of control; (dose: 15.0 mg/kg/injection, schedule: Q01DX005 (ip), vehicle: Klucel (hydroxypropylcellulose) (HPC)) 100 % of control; (dose: 25.0 mg/kg/injection, schedule: Q01DX009 (ip), vehicle: distilled water + Tween-80) 110 % of control and 89 % of control; (dose: 30.0 mg/kg/injection, schedule: Q01DX005 (ip), vehicle: Klucel (hydroxypropylcellulose) (HPC)) 108 % of control. The T/C is 109 % of control (dose: 50.0 mg/kg/injection, schedule: Q01DX009 (ip), vehicle: distilled water + Tween-80); 106 % of control and 116 % of control under setting [13]; 151 % of control (dose: 200.0 mg/kg/injection, schedule: Q01DX009 (ip), vehicle: distilled water + Tween-80).
For `CCOC(=O)c1ccc2c(c1)nc(-c1ccccn1)n2CCc1ccccn1`, the T/C was 100 % of control and 102 % of control under setting [14]; 98 % of control under setting [15]; 100 % of control and 107 % of control under setting [16]; 109 % of control and 110 % of control under setting [17].
With `COC(=O)c1ccccc1SSCCN`, the T/C was 100 % of control (dose: 12.5 mg/kg/injection, schedule: Q01DX005 (ip), vehicle: saline with Tween-80); 106 % of control (dose: 25.0 mg/kg/injection, schedule: Q01DX005 (ip), vehicle: saline with Tween-80); 101 % of control and 109 % of control under setting [10].
In the case of `CN1C(=O)C2SC(=NNc3ccccc3)SC1C(=O)N2C`, the T/C reads like this: under setting [7], 106 % of control; under setting [9], 120 % of control; (dose: 400.0 mg/kg/injection, schedule: Q04DX003 (ip), vehicle: saline with Tween-80) 100 % of control.
